In experiment [1] the target is purified human plasma kallikrein (Homo sapiens (Human), UniProt P03952). Description: Plasma kallikrein enzyme inhibition assay (chromogenic substrate S-2302). It is filed as biochemical.
Experiment [2] addresses purified human Factor XIa (Homo sapiens (Human), UniProt P03951). The experiment is described as follows: Factor XIa enzyme inhibition assay (chromogenic substrate S-2366). Particulars: read-out: Factor XIa Ki; measured at 25° C.
Setting [3] is: measured at 25° C. (no asterisk).

This passage reports Ki results from patent US9738655B2, “Tetrahydroisoquinolines containing substituted azoles as factor XIa inhibitors” (BRISTOL-MYERS SQUIBB COMPANY, priority 2013, dated 2017).

Broadly, the Ki is the equilibrium dissociation constant of an inhibitor or competing ligand from its target.

Structures can show the parent of a compound that is named as a salt. A value given as a limit tells only on which side of the number the result lay.

Sequence of purified human Factor XIa (P03951 388-625): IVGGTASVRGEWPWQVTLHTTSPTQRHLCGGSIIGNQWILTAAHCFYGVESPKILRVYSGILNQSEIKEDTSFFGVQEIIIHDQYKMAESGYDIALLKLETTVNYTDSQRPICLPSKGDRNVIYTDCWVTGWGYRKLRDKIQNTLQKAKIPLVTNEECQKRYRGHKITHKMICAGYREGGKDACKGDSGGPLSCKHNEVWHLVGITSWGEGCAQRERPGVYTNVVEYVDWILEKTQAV
Sequence of purified human Factor XIa (P03951 19-387 partner): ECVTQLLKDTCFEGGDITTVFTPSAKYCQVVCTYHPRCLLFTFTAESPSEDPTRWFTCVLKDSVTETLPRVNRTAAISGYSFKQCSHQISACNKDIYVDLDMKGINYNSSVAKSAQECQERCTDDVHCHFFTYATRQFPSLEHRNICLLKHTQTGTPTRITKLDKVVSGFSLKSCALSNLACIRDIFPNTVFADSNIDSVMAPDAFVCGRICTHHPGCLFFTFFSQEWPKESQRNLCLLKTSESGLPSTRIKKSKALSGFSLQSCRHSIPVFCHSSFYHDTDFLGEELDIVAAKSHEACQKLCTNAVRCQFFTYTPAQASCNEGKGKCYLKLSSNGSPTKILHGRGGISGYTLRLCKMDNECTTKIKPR
Sequence of purified human plasma kallikrein (P03952 391-638): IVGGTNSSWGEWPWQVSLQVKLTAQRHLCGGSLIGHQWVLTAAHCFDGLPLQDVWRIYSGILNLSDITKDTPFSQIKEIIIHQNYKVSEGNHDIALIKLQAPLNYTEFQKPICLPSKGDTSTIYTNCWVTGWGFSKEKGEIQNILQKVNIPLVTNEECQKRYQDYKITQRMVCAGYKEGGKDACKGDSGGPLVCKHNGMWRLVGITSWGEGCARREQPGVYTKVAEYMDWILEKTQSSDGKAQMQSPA
Sequence of purified human plasma kallikrein (P03952 20-390 partner): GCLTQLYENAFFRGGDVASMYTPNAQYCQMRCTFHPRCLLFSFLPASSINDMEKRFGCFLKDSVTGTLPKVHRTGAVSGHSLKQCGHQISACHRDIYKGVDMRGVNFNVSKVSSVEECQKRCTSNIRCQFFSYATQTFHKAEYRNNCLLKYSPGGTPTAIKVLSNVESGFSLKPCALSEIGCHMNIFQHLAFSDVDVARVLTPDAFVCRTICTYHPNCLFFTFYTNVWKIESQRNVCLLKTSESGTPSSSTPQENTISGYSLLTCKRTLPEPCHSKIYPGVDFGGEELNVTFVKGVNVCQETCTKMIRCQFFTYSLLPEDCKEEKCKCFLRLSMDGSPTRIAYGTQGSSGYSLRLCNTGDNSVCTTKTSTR

With `CC(C)c1nnc2n1CCN(c1cccc3c1CCN(C(=O)c1cn(-c4cccc(Cl)c4F)nn1)[C@@H]3C(=O)Nc1ccc(C(=O)O)cc1)C2` [Example 66, (S)-4-(2-(1-(3-chloro-2-fluorophenyl)-1H-1,2,3-triazole-4-carbonyl)-5-(3-isopropyl-5,6-dihydro-[1,2,4]triazolo[4,3-a]pyrazin-7(8H)-yl)-1,2,3,4-tetrahydroisoquinoline-1-carboxamido)benzoic acid, TFA salt], the Ki in experiment [1] (setting [3]) was 2.57 nM; in experiment [2], below 5 nM.

Turning to `CC1(O)CCN(c2cccc3c2CCN(C(=O)c2cn(-c4cccc(Cl)c4F)nn2)C3C(=O)Nc2ccc(C(=O)O)cc2)CC1` (stereo not drawn) [Example 67, 4-(2-(1-(3-chloro-2-fluorophenyl)-1H-1,2,3-triazole-4-carbonyl)-5-(4-hydroxy-4-methylpiperidin-1-yl)-1,2,3,4-tetrahydroisoquinoline-1-carboxamido)benzoic acid, TFA salt], the Ki in experiment [1] (setting [3]) was 7.17 nM; in experiment [2], below 5 nM.

On to `O=C(O)c1ccc(NC(=O)C2c3cccc(N4CCOCC4=O)c3CCN2C(=O)c2cn(-c3cccc(Cl)c3F)nn2)cc1` (stereo not drawn) [Example 69, 4-(2-(1-(3-chloro-2-fluorophenyl)-1H-1,2,3-triazole-4-carbonyl)-5-(3-oxomorpholino)-1,2,3,4-tetrahydroisoquinoline-1-carboxamido)benzoic acid], for which the Ki in experiment [1] (setting [3]) is 9.92 nM; in experiment [2] it was below 5 nM.

For `COC1CCN(c2cccc3c2CCN(C(=O)C2CC(=O)N(c4c(F)ccc(Cl)c4F)C2)C3C(=O)Nc2ccc(C(=O)O)cc2)CC1` (stereo not drawn) [Example 71, 4-(2-(1-(3-chloro-2,6-difluorophenyl)-5-oxopyrrolidine-3-carbonyl)-5-(4-methoxypiperidin-1-yl)-1,2,3,4-tetrahydroisoquinoline-1-carboxamido)benzoic acid, TFA salt], the inhibitory constant (Ki) in experiment [1] (measured at 37° C. (*)) was above 6000 nM; in experiment [2], 913 nM.

For `O=C(O)c1ccc(NC(=O)C2c3cccc(N4CCC(N5CCCC5=O)CC4)c3CCN2C(=O)c2cn(-c3cccc(Cl)c3F)nn2)cc1` (stereo not drawn) [Example 72, 4-(2-(1-(3-chloro-2-fluorophenyl)-1H-1,2,3-triazole-4-carbonyl)-5-(4-(2-oxopyrrolidin-1-yl)piperidin-1-yl)-1,2,3,4-tetrahydroisoquinoline-1-carboxamido)benzoic acid, TFA salt], the Ki in experiment [1] (setting [3]) was 13.8 nM; in experiment [2], below 5 nM.

Take `O=C(O)c1ccc(NC(=O)C2c3cccc(N4CCC(N5CCCC5=O)CC4)c3CCN2C(=O)c2cnn(-c3cccc(Cl)c3F)c2)cc1` (stereo not drawn) [Example 74, 4-(2-(1-(3-chloro-2-fluorophenyl)-1H-pyrazole-4-carbonyl)-5-(4-(2-oxopyrrolidin-1-yl)piperidin-1-yl)-1,2,3,4-tetrahydroisoquinoline-1-carboxamido)benzoic acid, TFA salt]: the Ki in experiment [1] (setting [3]) was 27.6 nM; in experiment [2] it was below 5 nM.

As for `O=C1CCC2(CCN(c3cccc4c3CCN(C(=O)c3cnn(-c5cccc(Cl)c5F)c3)C4C(=O)Nc3ccc(C(=O)O)cc3)CC2)O1` (stereo not drawn) [Example 75, 4-(2-(1-(3-chloro-2-fluorophenyl)-1H-pyrazole-4-carbonyl)-5-(2-oxo-1-oxa-8-azaspiro[4.5]-decan-8-yl)-1,2,3,4-tetrahydroisoquinoline-1-carboxamido)benzoic acid, TFA salt], the Ki in experiment [1] (setting [3]) is 25.8 nM; in experiment [2], below 5 nM.

Turning to `O=C1CCC2(CCN(c3cccc4c3CCN(C(=O)c3cn(-c5cccc(Cl)c5F)nn3)C4C(=O)Nc3ccc(C(=O)O)cc3)CC2)O1` (stereo not drawn) [Example 76, 4-(2-(1-(3-chloro-2-fluorophenyl)-1H-1,2,3-triazole-4-carbonyl)-5-(2-oxo-1-oxa-8-azaspiro[4.5]decan-8-yl)-1,2,3,4-tetrahydroisoquinoline-1-carboximido)benzoic acid, TFA], the inhibition constant Ki was 15.3 nM in experiment [1] (setting [3]) and below 5 nM in experiment [2].

With `O=C1CCC2(CCN(c3cccc4c3CCN(C(=O)c3cn(-c5cccc(Cl)c5F)cn3)C4C(=O)Nc3ccc(C(=O)O)cc3)CC2)O1` (stereo not drawn) [Example 77, 4-(2-(1-(3-chloro-2-fluorophenyl)-1H-imidazole-4-carbonyl)-5-(2-oxo-1-oxa-8-azaspiro[4.5]decan-8-yl)-1,2,3,4-tetrahydroisoquinoline-1-carboxamido)benzoic acid, TFA salt], the Ki in experiment [1] (setting [3]) is 7.96 nM; in experiment [2], below 5 nM.

With `O=C(O)c1ccc(NC(=O)C2c3cccc(N4CCCCC4)c3CCN2C(=O)c2cn(-c3cccc(Cl)c3F)nn2)cc1` (stereo not drawn) [Example 78, 4-(2-(1-(3-chloro-2-fluorophenyl)-1H-1,2,3-triazole-4-carbonyl)-5-(piperidin-1-yl)-1,2,3,4-tetrahydroisoquinoline-1-carboxamido)benzoic acid, TFA salt], the values for the Ki in experiment [1] (setting [3]) and in experiment [2] were 36.1 nM and 9.16 nM, respectively.

For the compound `CN1CCN(c2cccc3c2CCN(C(=O)c2cn(-c4cccc(Cl)c4F)nn2)[C@H]3C(=O)Nc2ccc(C(=O)O)cc2)C(=O)C1` [Example 79, (R)-4-(2-(1-(3-chloro-2-fluorophenyl)-1H-1,2,3-triazole-4-carbonyl)-5-(4-methyl-2-oxopiperazin-1-yl)-1,2,3,4-tetrahydroisoquinoline-1-carboxamido)benzoic acid, TFA salt], the inhibition constant Ki in experiment [1] (setting [3]) was 719 nM; in experiment [2], 114 nM.

With `CN1CCN(c2cccc3c2CCN(C(=O)c2cn(-c4cccc(Cl)c4F)nn2)[C@@H]3C(=O)Nc2ccc(C(=O)O)cc2)C(=O)C1` [Example 80, (S)-4-(2-(1-(3-chloro-2-fluorophenyl)-1H-1,2,3-triazole-4-carbonyl)-5-(4-methyl-2-oxopiprazin-1-yl)-1,2,3,4-tetrahydroisoquinoline-1-carboxamido)benzoic acid, HCl], the figures for the inhibitory constant (Ki) in experiment [1] (setting [3]) and in experiment [2] were 6.37 nM and below 5 nM, respectively.

As for `O=C(O)c1ccc(NC(=O)C2c3cccc(N4CCCCC4=O)c3CCN2C(=O)c2cn(-c3cccc(Cl)c3F)nn2)cc1` (stereo not drawn) [Example 81, 4-(2-(1-(3-chloro-2-fluorophenyl)-1H-1,2,3-triazole-4-carbonyl)-5-(2-oxopiperidin-1-yl)-1,2,3,4-tetrahydroisoquinoline-1-carboxamido)benzoic acid], the results for the Ki in experiment [1] (setting [3]) and in experiment [2] were 20.7 nM and below 5 nM, respectively.

Consider `COC1CN(c2cccc3c2CCN(C(=O)c2cn(-c4cccc(Cl)c4F)nn2)C3C(=O)Nc2ccc(C(=O)O)cc2)C1` (stereo not drawn) [Example 83, 4-(2-(1-(3-chloro-2-fluorophenyl)-1H-1,2,3-triazole-4-carbonyl)-5-(3-methoxyazetidin-1-yl)-1,2,3,4-tetrahydroisoquinoline-1-carboxamido)benzoic acid, TFA salt], for which the figures for the inhibition constant Ki in experiment [1] (setting [3]) and in experiment [2] were 12.1 nM and below 5 nM, respectively.

Consider `O=C(O)c1ccc(NC(=O)[C@H]2c3cccc(N4CCOCC4)c3CCN2C(=O)c2cnn(-c3cccc(Cl)c3F)c2)cc1` [Example 88, (R)-4-(2-(1-(3-Chloro-2-fluorophenyl)-1H-pyrazole-4-carbonyl)-5-morpholino-1,2,3,4-tetrahydroisoquinoline-1-carboxamido)benzoic acid, TFA salt], for which the figures for the Ki in experiment [1] (setting [3]) and in experiment [2] were 2080 nM and 391 nM, respectively.

With `O=C(O)c1ccc(NC(=O)[C@@H]2c3cccc(N4CCOCC4)c3CCN2C(=O)c2cnn(-c3cccc(Cl)c3F)c2)cc1` [Example 89, (S)-4-(2-(1-(3-Chloro-2-fluorophenyl)-1H-pyrazole-4-carbonyl)-5-morpholino-1,2,3,4-tetrahydroisoquinoline-1-carboxamido)benzoic acid, TFA salt], the inhibitory constant (Ki) in experiment [1] (setting [3]) was 11.4 nM; in experiment [2], below 5 nM.

`O=C(O)c1ccc(NC(=O)[C@@H]2c3cccc(N4CCOCC4)c3CCN2C(=O)c2cn(-c3cccc(Cl)c3F)nn2)cc1` [Example 90, (S)-4-(2-(1-(3-Chloro-2-fluorophenyl)-1H-1,2,3-triazole-4-carbonyl)-5-morpholino-1,2,3,4-tetrahydroisoquinoline-1-carboxamido)benzoic acid, TFA salt]: the results for the inhibitory constant (Ki) in experiment [1] (setting [3]) and in experiment [2] were 5.37 nM and below 5 nM, respectively.

Regarding `O=C(O)c1ccc(NC(=O)[C@@H]2c3cccc(N4CCOCC4)c3CCN2C(=O)c2cn(-c3cccc(Cl)c3F)cn2)cc1` [Example 91, (S)-4-(2-(1-(3-Chloro-2-fluorophenyl)-1H-imidazole-4-carbonyl)-5-morpholino-1,2,3,4-tetrahydroisoquinoline-1-carboxamido)benzoic acid, TFA salt], the Ki in experiment [1] (setting [3]) is 3.84 nM; in experiment [2] it was below 5 nM.

In the case of `O=C(O)c1ccc(NC(=O)C2c3cccc(N4CCC(N5CCCC5=O)CC4)c3CCN2C(=O)c2cn(-c3cccc(Cl)c3F)cn2)cc1` (stereo not drawn) [Example 92, 4-(2-(1-(3-Chloro-2-fluorophenyl)-1H-imidazole-4-carbonyl)-5-(4-(2-oxopyrrolidin-1-yl)piperidin-1-yl)-1,2,3,4-tetrahydroisoquinoline-1-carboxamido)benzoic acid, TFA salt], the Ki in experiment [1] (setting [3]) was 5.6 nM; in experiment [2], below 5 nM.

As to `CN(C)C1CCN(c2cccc3c2CCN(C(=O)c2cnn(-c4cccc(Cl)c4F)c2)C3C(=O)Nc2ccc(-c3ncco3)cc2)CC1` (stereo not drawn) [Example 93, 2-(1-(3-Chloro-2-fluorophenyl)-1H-pyrazole-4-carbonyl)-5-(4-(dimethylamino)piperidin-1-yl)-N-(4-(oxazol-2-yl)phenyl)-1,2,3,4-tetrahydroisoquinoline-1-carboxamide, bis-TFA salt], the figures for the Ki in experiment [1] (setting [3]) and in experiment [2] were 9.65 nM and 6.65 nM, respectively.

On to `CN(C)C1CCN(c2cccc3c2CCN(C(=O)c2cnn(-c4cccc(Cl)c4F)c2)C3C(=O)Nc2ccc(OCC3CCCO3)cc2)CC1` (stereo not drawn) [Example 95, 2-(1-(3-chloro-2-fluorophenyl)-1H-pyrazole-4-carbonyl)-5-(4-(dimethylamino)piperidin-1-yl)-N-(4-((tetrahydrofuran-2-yl)methoxy)phenyl)-1,2,3,4-tetrahydroisoquinoline-1-carboxamide, TFA salt], for which the figures for the inhibition constant (Ki) in experiment [1] (setting [3]) and in experiment [2] were 16.9 nM and 14.7 nM, respectively.
